Patent publication EP4763840A1, “NOVEL QUINAZOLINE-BENZIMIDAZOLE DERIVATIVE OR PHARMACEUTICALLY ACCEPTABLE SALT THEREOF AND USE THEREOF” (Korea University Research and Business Foundation, priority 2023, dated 2025)

How the values were obtained:
JIMT-1 [1] = assay: Cell cycle analysis by propidium iodide flow cytometry in JIMT-1; format: cell-based, human; conditions: 5 µM, 48 hours, PI staining
Procedure: In order to confirm this, the following experiments were performed. After treatment with the compounds of Formulas 1-16 and 1-19 at a concentration of 5 µM for 48 hours in a trastuzumab-resistant HER2-positive breast cancer cell JIMT-1, the cells were stained with propidium iodide (PI), and the cell cycle was analyzed according to DNA content using flow cytometry, and the results are shown in A of FIG. 6.

[2] = test system: hepatic cancer cell line HepG2; assay: MTS assay cell viability in HepG2; format: cell-based; conditions: 0, 0.1, 0.5, 1, 5, and 10 µM, 72 hours
phospho-Histone H3 = phospho-Histone H3 immunocytochemistry in JIMT-1; format: cell-based, human; conditions: 5 µM, 24 hours
Procedure: In addition, after treatment with compounds 1-16 and 1-19 at a concentration of 5 µM for 24 hours in a JIMT-1 cell line, expression of phospho-Histone H3, a marker of mitosis, was confirmed by immunocytochemistry, and the results are shown in B of FIG. 6.

[3] = test system: prostate cancer cell line Du145; assay: MTS assay cell viability in Du145; format: cell-based; conditions: 0, 0.1, 0.5, 1, 5, and 10 µM, 72 hours
MDA-MB-231 = assay: MTS assay cell viability screening in MDA-MB-231; format: cell-based, human; conditions: 0, 1, and 5 µM, 72 hours
Procedure: (§1) MDA-MB-231 (Cell seeding numbers: 0.8(M231) x 10^4 cells/wells (confluency ≧ 25%), which is a human triple-negative breast cancer (TNBC) cell line, and JIMT-1 (Cell seeding numbers: 0.8(JIMT) x 10^4 cells/wells (confluency ≧ 25%)), which is a HER2 positive breast cancer (HER2+ BC) cell line, were used in the experiment.
(§2) The above cell lines were cultured in Dulbecco's modified Eagle's medium (DMEM) containing 10% fetal bovine serum (FBS), streptomycin-penicillin (100 U/mL), and Fungizone (0.625 µg/mL) at 5% CO2 and 37°C.
(§3) The human breast cancer cell lines MDA-MB-231 and JIMT-1 were treated with quinazoline-benzimidazole derivatives of Formulas 1-1 to 1-31 at various concentrations of 0, 1, and 5 µM, respectively, for 72 hours, and then cell viability was measured using the MTS assay technique. In the MTS assay, cells were attached to a 96-well plate for 24 hours, treated with the quinazoline-benzimidazole derivative for 72 hours, developed with MTS (3-(4,5-dimethylthiazol-2-yl)-5-(3-carboxymethoxyphenyl)-2-(4-sulfophenyl)-2H-tetrazolium) for 4 hours, and then absorbance was measured at 490 nm using a Spectramax Plus384 microplate analyzer.

[4] = test system: HER2, HER family members (HER3 and EGFR), and AKT and MEK; assay: Western blot of HER2 signaling proteins in JIMT-1; format: cell-based, human; conditions: 5 µM, 24, 48, and 72 hours
Procedure: Then, after treatment with the compounds of Formulas 1-16 and 1-19 at a concentration of 5 µM for 24, 48, and 72 hours in a JIMT-1 cell line, protein expression and phosphorylation of HER2, HER family members (HER3 and EGFR), and AKT and MEK of downstream signaling mechanism were confirmed by western blot, and the results are shown in FIG. 7. […] Thereby, it was confirmed that the quinazoline-benzimidazole derivatives of the disclosure have a tyrosine kinase inhibitory effect on HER2 as in the above-described design objective.

SKBR3 [5] = assay: Annexin V/PI staining flow cytometry in SKBR3; format: cell-based; conditions: 5 µM, 48 hours
Procedure: (§4) Subsequently, after treatment with the compounds of Formulas 1-16 and 1-19 at a concentration of 5 µM for 48 hours in SKBR3 and JIMT-1 cell lines, the degree of apoptosis was measured by flow cytometry through Annexin V/PI staining, and the results are shown in A of FIG. 5. […] After treatment in the same manner as above, expression of apoptosis-related proteins and degradation of tubulin protein were confirmed by western blot, and the results are shown in B of FIG. 5.

SKBR3 [6] = assay: Cell morphology by optical microscope in SKBR3; format: cell-based; conditions: 5 µM, 48 hours
Procedure: (§5) In addition, after treatment with compounds 1-15, 1-16, 1-19, and 1-22 at a concentration of 5 µM for 48 hours in SKBR3 and JIMT-1 cell lines, morphological changes of the cells were observed using an optical microscope, and the results are shown in B of FIG. 4.

[7] = test system: colorectal cancer cell line HCT116; assay: MTS assay cell viability in HCT116; format: cell-based; conditions: 0, 0.1, 0.5, 1, 5, and 10 µM, 72 hours
JIMT-1 [8] = assay: Annexin V/PI staining flow cytometry in JIMT-1; format: cell-based, human; conditions: 5 µM, 48 hours
Procedure: as §4

SKBR3 [9] = assay: MTS assay cell viability in SKBR3; format: cell-based; conditions: SKBR3 (trastuzumab-sensitive), 0, 0.1, 0.5, 1, 2, and 5 µM, 72 hours
JIMT-1 [10] = assay: MTS assay cell viability in JIMT-1; format: cell-based, human; conditions: 72 hours; for inhibition of cell viability: JIMT-1 (trastuzumab-resistant), 0, 0.1, 0.5, 1, 2, and 5 µM; for cell viability: JIMT-1, 0, 1, and 5 µM
Procedure: as §1, §2, §3, §5

[11] = test system: hematological cancer cell line HL-60; assay: MTS assay cell viability in HL-60; format: cell-based; conditions: 0, 0.1, 0.5, 1, 5, and 10 µM, 72 hours
[12] = test system: ovarian cancer cell line SKOV3; assay: MTS assay cell viability in SKOV3; format: cell-based; conditions: 0, 0.1, 0.5, 1, 5, and 10 µM, 72 hours
tubulin protein [13] = assay: Western blot of apoptosis-related proteins and tubulin in SKBR3; format: cell-based; conditions: 5 µM, 48 hours
Procedure: as §4

[14] = test system: lung cancer cell line H1299; assay: MTS assay cell viability in H1299; format: cell-based; conditions: 0, 0.1, 0.5, 1, 5, and 10 µM, 72 hours
tubulin protein [15] = assay: Western blot of apoptosis-related proteins and tubulin in JIMT-1; format: cell-based, human; conditions: 5 µM, 48 hours
Procedure: as §4

JIMT-1 [16] = assay: Cell morphology by optical microscope in JIMT-1; format: cell-based, human; conditions: 5 µM, 48 hours
Procedure: as §5

SMILES: O=c1c2cc(-c3ccc4nc(-c5ccc(F)c(Cl)c5)[nH]c4c3)ccc2ncn1CCN1CCCCC1 [Formula 1-16]
- cell cycle according to DNA content (JIMT-1 [1]): G2/M phase cell cycle arrest
- cell viability [2]: effectively inhibited
- expression of phospho-Histone H3, a marker of mitosis (phospho-Histone H3): increased abnormal expression of a phospho-Histone H3 protein
- cell viability [3]: effectively inhibited
- cell viability (MDA-MB-231): excellent activity
- activities of HER2, p95HER2, HER3, EGFR, AKT, and MEK [4]: effectively inhibited
- protein expression and phosphorylation of HER2, HER family members (HER3 and EGFR), and AKT and MEK [4]: decreased in a time-dependent manner
- degree of apoptosis (SKBR3 [5]): effectively induced early and late apoptosis
- morphological changes of the cells (SKBR3 [6]): typical apoptotic morphology
- cell viability [7]: effectively inhibited
- degree of apoptosis (JIMT-1 [8]): effectively induced early and late apoptosis
- inhibition of cell viability (SKBR3 [9]): concentration-dependent inhibition of cell viability
- inhibition of cell viability (JIMT-1 [10]): concentration-dependent inhibition of cell viability
- cell viability (JIMT-1 [10]): excellent activity
- cell viability [11]: effectively inhibited
- cell viability [12]: effectively inhibited
- expression of apoptosis-related proteins and degradation of tubulin protein (tubulin protein [13]): apoptosis effect by inhibiting tubulin polymerization
- cell viability [14]: effectively inhibited
- expression of apoptosis-related proteins and degradation of tubulin protein (tubulin protein [15]): apoptosis effect by inhibiting tubulin polymerization
- morphological changes of the cells (JIMT-1 [16]): typical apoptotic morphology

SMILES: O=c1c2cc(-c3ccc4nc(-c5ccc(Cl)cn5)[nH]c4c3)ccc2ncn1CCN1CCCCC1 [Formula 1-22, 6-(2-(5-Chloropyridin-2-yl)-1H-benzo[d]imidazol-6-yl)-3-(2-(piperidin-1-yl)ethyl)quinazolin-4(3H)-one]
- cell viability (MDA-MB-231): excellent activity
- morphological changes of the cells (SKBR3 [6]): typical apoptotic morphology
- inhibition of cell viability (SKBR3 [9]): concentration-dependent inhibition of cell viability
- inhibition of cell viability (JIMT-1 [10]): concentration-dependent inhibition of cell viability
- cell viability (JIMT-1 [10]): excellent activity
- morphological changes of the cells (JIMT-1 [16]): typical apoptotic morphology

SMILES: Cc1ccc(-c2nc3ccc(-c4ccc5ncn(CCN6CCCCC6)c(=O)c5c4)cc3[nH]2)cc1 [Formula 1-19]
- cell cycle according to DNA content (JIMT-1 [1]): G2/M phase cell cycle arrest
- cell viability [2]: effectively inhibited
- expression of phospho-Histone H3, a marker of mitosis (phospho-Histone H3): increased abnormal expression of a phospho-Histone H3 protein
- cell viability [3]: effectively inhibited
- cell viability (MDA-MB-231): excellent activity
- activities of HER2, p95HER2, HER3, EGFR, AKT, and MEK [4]: effectively inhibited
- protein expression and phosphorylation of HER2, HER family members (HER3 and EGFR), and AKT and MEK [4]: decreased in a time-dependent manner
- degree of apoptosis (SKBR3 [5]): effectively induced early and late apoptosis
- morphological changes of the cells (SKBR3 [6]): typical apoptotic morphology
- cell viability [7]: effectively inhibited
- degree of apoptosis (JIMT-1 [8]): effectively induced early and late apoptosis
- inhibition of cell viability (SKBR3 [9]): concentration-dependent inhibition of cell viability
- inhibition of cell viability (JIMT-1 [10]): concentration-dependent inhibition of cell viability
- cell viability (JIMT-1 [10]): excellent activity
- cell viability [11]: effectively inhibited
- cell viability [12]: effectively inhibited
- expression of apoptosis-related proteins and degradation of tubulin protein (tubulin protein [13]): apoptosis effect by inhibiting tubulin polymerization
- cell viability [14]: effectively inhibited
- expression of apoptosis-related proteins and degradation of tubulin protein (tubulin protein [15]): apoptosis effect by inhibiting tubulin polymerization
- morphological changes of the cells (JIMT-1 [16]): typical apoptotic morphology

SMILES: O=c1c2cc(-c3ccc4nc(-c5ccc(Cl)cc5)[nH]c4c3)ccc2ncn1CCN1CCCCC1 [Formula 1-15, 6-(2-(4-Chlorophenyl)-1H-benzo[d]imidazol-6-yl)-3-(2-(piperidin-1-yl)ethyl)quinazolin-4(3H)-one]
- cell viability (MDA-MB-231): excellent activity
- morphological changes of the cells (SKBR3 [6]): typical apoptotic morphology
- inhibition of cell viability (SKBR3 [9]): concentration-dependent inhibition of cell viability
- inhibition of cell viability (JIMT-1 [10]): concentration-dependent inhibition of cell viability
- cell viability (JIMT-1 [10]): excellent activity
- morphological changes of the cells (JIMT-1 [16]): typical apoptotic morphology
